We go through six compounds from patent US5334595A, “Pyrazoloquinolones as anticancer agents” (priority 1992, dated 1994).

Series [1] in a line: In vivo antitumor assay, MXI(sc). The arrangement: species or system human. The note with it: mouse, in vivo, drug ip, qd 1,5,9, exp SD-9. The text has this: (§1) Mice: Inbred: C3H/He and NCR-nu; and Hybrids: B6D2F1 (C57BL/6 females×DBA/2 males, CD2F1 (Balb/c females×DBS/2 males) and B6C3fl (C57BL/6×C3H) were bred at Wayne State University from strains obtained from the Frederick Cancer Research Facility, Frederick, Maryland or purchased from commercial suppliers.
(§2) Tumors: Murine Tumor: P388 and an adriamycin-resistant (ADR) subline P388/ADR leukemia and the following transplantable solid tumors of mice were used for in vivo testing: B16 melanoma (B16), pancreatic ductal adenocarcinoma No. 03 (Pane 03), colon adenocarcinoma No. 38 (colo 38), lung carcinoma No. 12 (LC 12), mammary ductal adenocarcinoma No. 16/C (Mam16C) and an adriamycin-resistant subline Mam16C/ADR. Human tumor: A single human tumor, mammary carcinoma MX-1 was used for in vivo testing. All tumors are in the Developmental Therapeutics Program frozen tumor respository, maintained by the Biological Testing Branch, Frederick Maryland. Each has a detailed description, code identification number, and list of references at the National Tumor Repository. Murine tumors were maintained in the mouse strain of origin and were transplanted in the appropriate F1 hydrid (or the strain of origin) for therapy trials. Human mammary carcinoma MX-1 (MX1) was maintained as a subcutaneous implant in either athymic Swiss (Cr: NIH(S)-nu) or athymic random bred (NCR-nu) mice and transplanted in NCR-nu for therapy trials.
(§3) For P388 and P388/ADR leukemia studies the tumor cells were implanted either interperitoneally (IP) or intravenously (IV) on day zero and treatment was started on day one. For B16 melanoma (B16) studies, the tumor cells were implanted IP on day zero and treatment was started on day one. Titered controls were also included to facilitate the calculation of tumor cell kill. For mammary carcinoma MX-1 studies, tumors were implanted with 1) subcutaneously (sc) (14-mg fragment of sc donor tumor) in the axillary region or 2) under the subrenal capsule (SRC) (10×10×10 ocular micrometer unit fragment of sc donor tumor).
(§4) Quantitative end points used to assess antitumor activity included % Increased Life Span (% ILS), Tumor Cell Kill (Log10 kill), and Tumor Growth Inhibition (T/C). Long Term Survivors (45 or 60 day) were excluded from calculations of %ILS and Tumor Cell Kill.
(§5) Tumors were measured with a caliper once or twice weekly (as needed) until either tumors exceeded 1600 mg or cure was assured. Tumor weights were estimated from two-dimensional measurements: Tumor Weight (mg)=(a×b^2) / 2, where a and b are the tumor length and width (ram) respectively. Measurements were carried out simultaneously in both treatment and control groups. When the control group tumors reached approximately 750-1500 mg in size (median of group), the median tumor weight of each group was determined (including zeros). The T/C value in percent is an indication of antitumor effectiveness. The % T/C was calculated from the following formula for solid murine tumor models: [formula] where T and C are median tumor weights of the treatment and control groups, respectively. […] A T/C value <10% is indicative of a high degree of antitumor activity and is the level used by National Cancer Institute to justify further development if other requirements are met (termed DN-2 level activity). By convention the T/C value for the mammary carcinoma MX-1 models is calculated by the parameter of change in tumor weight . The % T/C was calculated from the following formula for MX-1 models [formula] where ΔT and ΔC are the change in mean tumor weight of the test and control groups, respectively, and T (initial) is the initial mean tumor weight of the test group. […] A reproducible % T/C ≤10 is considered significant activity.

The subject of series [2] is mammary carcinoma MX-1. Nature of the series: In vivo antitumor assay, MXI(sc). Set-up: species or system human. The following applies: drug ip, qd 1,5,9, exp SD-9, change in tumor weight.
Text: as §1, §2, §3, §4, §5

The nature of series [3]: In vivo antitumor assay, MXI(src). The arrangement: species or system mice. The note with it: mouse, in vivo, drug ip.
Text: as §1, §2, §3, §4, §5

Series [4] has as its system mammary carcinoma MX-1. Nature of the series: In vivo antitumor assay, MXI(src). The arrangement: species or system mice. The note with it: drug ip, qd 1,5,9, exp SD-18, change in tumor weight.
Text: as §1, §2, §3, §4, §5

Series [5] can be described thus: In vivo antitumor assay, P388(ip). Set-up: species or system mice. The following applies: mouse, in vivo, qd 1,5,9.
Text: as §1, §2, §3, §4
(§6) Endpoints were calculated as follows: [formula] where Dt is the median day of death for treated and Dc is the median day of death for control groups. A % ILS ≥20 or ≥25 for P388 and B16 intraperitoneal models, respectively, is indicative of a significant degree of antitumor activity. A % ILS ≥75 or ≥50 for P388 and B16 intraperitoneal models, , respectively, is indicative of a high degree of antitumor activity and is the level used by National Cancer Institute to justify further development if other requirements are met (termed DN-2 level activity). Minimum quantitative activity limits for additional P388 models (e.g. P388/ADR and P388, IV) have not been defined.

For the next series, the system named is P388 leukemia. Briefly: In vivo antitumor assay, P388(ip). Set-up: species or system mice. The following applies: qd 1,5,9.
Text: as §1, §2, §3, §4, §6

Series [6] is described as follows: In vivo antitumor assay, Panc03(sc). The following applies: mouse, in vivo. The arrangement: species or system mice.
Text: as §1, §2
Chemotherapy: For pancreatic ductal adenocarcinoma No. 3, colon adenocarcinoma No. 38 (colo 38), lung carcinoma No. 12 LC 12) and both adriamycin-sensitive (RP) and-resistant (ADR) mammary ductal adenocarcinoma No. 16 (Mam16) tumors, bilateral tumor implants were used to help ensure a more uniform tumor burden per mouse (thus reducing the requirement for greater numbers of mice per group). The animals necessary to begin an experiment were pooled, implanted bilaterally s.c. on day zero with 30-60 mg tumor fragments using a 12-gauge trocar, and again pooled before randomization to the various treatment and control groups. Chemotherapy was started within three days after tumor implantation while the number of cells per mouse was relatively small (1×10^7 -1×10^8 cells).
as §4
The log10 cell kill was calculated from the following formula: [formula] where T-C is the tumor difference in the median day of death between the treated (T) and the control (C) groups and Td is the tumor doubling time (in days), the latter estimated from the best fit straight line from a log-linear growth plot of the control-group tumors in exponential growth. The conversion of the T-C values to log10 cell kill is possible because the Td for tumors regrowing post-treatment approximated the Td values of the tumors in untreated control mice.
Tumors were measured with a caliper once or twice weekly (as needed) until either tumors exceeded 1600 mg or cure was assured. Tumor weights were estimated from two-dimensional measurements: Tumor Weight (mg)=(a×b^2) / 2, where a and b are the tumor length and width (ram) respectively. Measurements were carried out simultaneously in both treatment and control groups. When the control group tumors reached approximately 750-1500 mg in size (median of group), the median tumor weight of each group was determined (including zeros). The T/C value in percent is an indication of antitumor effectiveness. The % T/C was calculated from the following formula for solid murine tumor models: [formula] where T and C are median tumor weights of the treatment and control groups, respectively. A T/C equal to or less than 42% is considered significant antitumor activity. […]

As to `Cc1cc(-c2c(F)cc3c4nn(CCN(C)C)c(=O)c-4cn(C4CC4)c3c2F)cc(C)n1.O=C(O)/C=C/C(=O)O` [Example 1, 5-Cyclopropyl-6,8-difluoro-2,5-dihydro-2-[2-(dimethylamino)-ethyl]-7-(2,6-dimethyl-4-pyridinyl)-3H-pyrazolo[4,3-c]quinolin-3-one (E)-2-butendioate (1:1)], the MTD in series [1] was found to be 78 mg/kg; in series [3] (qd 1,5,9, exp SD-18), 52 mg/kg; in series [5] (drug ip), 78 mg/kg; in series [5] (drug iv), 117 mg/kg; in series [6] (iv, Panc03(sc), drug iv, qd 3,4, exp 1005A, read-out: MTD) it was 52 mg/kg; in series [6] (iv, Panc03(sc), drug iv, qd 3,6,9, exp 1146, read-out: MTD), 34 mg/kg. Moreover, the MTD was 35 mg/kg in series [6] (iv, Panc03(sc), drug iv, qd 3, exp 895A, read-out: MTD) and 45 mg/kg in series [6] (iv, Panc03(sc), drug iv, qd 3-9, exp 910, read-out: MTD). The figures for the T/C % in the series with mammary carcinoma MX-1 [2] and in the series with mammary carcinoma MX-1 [4] were 37% and 6%, respectively. The ILS % with P388 leukemia (drug ip) was 155%; in the series with P388 leukemia (drug iv), 170%. The “Log Kill” value is recorded as 11 in the series on P388 leukemia (drug ip) and 12 in the series with P388 leukemia (drug iv).
On to `Cc1cc(-c2c(F)cc3c4nn(CCCN(C)C)c(=O)c-4cn(C4CC4)c3c2F)cc(C)n1` [Example 14], for which the MTD in series [1] is 42 mg/kg; in series [5] (drug ip) it was 42 mg/kg; in series [5] (drug iv), 64 mg/kg; in series [6] (iv, MTD), 107 mg/kg. Moreover, the T/C % in the series on mammary carcinoma MX-1 [2] is 53%. Also, the ILS % stood at 85% in the series on P388 leukemia (drug ip) and 70% in the series with P388 leukemia (drug iv). Also, the entries for the “Log Kill” value with P388 leukemia (drug ip) and with P388 leukemia (drug iv) were 6.1 and 5.0, respectively.
As for `Cc1cc(-c2c(F)cc3c4nn(CCNCCO)c(=O)c-4cn(C4CC4)c3c2F)cc(C)n1` [Example 17], the MTD was found to be 270 mg/kg in series [1], 180 mg/kg in series [5] (drug ip), 120 mg/kg in series [5] (drug iv) and 1410 mg/kg in series [6] (MTD). Further, the T/C % in the series on mammary carcinoma MX-1 [2] stood at 67%. The results for the ILS % with P388 leukemia (drug ip) and with P388 leukemia (drug iv) were 50% and 5%, respectively. Further, the “Log Kill” value in the series with P388 leukemia (drug ip) stood at 3.5; with P388 leukemia (drug iv), 0.35.
As for `Cc1cc(-c2c(F)cc3c4nn([C@H]5CC[C@@H](N(C)C)CC5)c(=O)c-4cn(C4CC4)c3c2F)cc(C)n1` [Example 51a], the MTD in series [3] (qd 1,5,9, exp SD-18, MTD not achieved, maximum dose tested) was above 23 mg/kg; in series [5] (drug ip), 9.9 mg/kg; in series [5] (drug iv), 39.9 mg/kg; in series [6] (iv, MTD), 63 mg/kg. The same compound showed a T/C % in the series on mammary carcinoma MX-1 [4] of 5%. Also, the ILS % with P388 leukemia (drug ip) is recorded as 65%; with P388 leukemia (drug iv), 70%. Also, the “Log Kill” value amounted to 4.7 with P388 leukemia (drug ip) and 5.1 in the series on P388 leukemia (drug iv).
In the case of `Cc1cc(-c2c(F)cc3c4nn([C@H]5CC[C@H](N(C)C)CC5)c(=O)c-4cn(C4CC4)c3c2F)cc(C)n1` [Example 51b], the MTD in series [3] (qd 1,5,9, exp SD-18) is 99 mg/kg; in series [5] (drug ip), 66 mg/kg; in series [5] (drug iv) it was 120 mg/kg; in series [6] (MTD), above 390 mg/kg. The compound also gave a T/C % in the series with mammary carcinoma MX-1 [4] of 2%. Moreover, the ILS % in the series on P388 leukemia (drug ip) and with P388 leukemia (drug iv) was 85% in each case. In addition, the “Log Kill” value with P388 leukemia (drug ip) and with P388 leukemia (drug iv) was 6.2 throughout.
On to `Cc1cc(-c2c(F)cc3c4nn([C@H]5CC[C@@H](N)CC5)c(=O)c-4cn(C4CC4)c3c2F)cc(C)n1` [Example 56a, 2-(Cis-4-Aminocyclohexyl)-5-cyclopropyl-6,8-difluoro-2,5-dihydro-7-(2,6-dimethyl-4-pyridinyl)-3H-pyrazolo-[4,3-c]quinolin-3-one], for which the MTD in series [6] (iv, MTD) came to 110 mg/kg.
